We go through one molecule from patent US9445979B2, “Hair treatment composition containing gambogic acid, ester or amide” (DSM IP ASSETS B.V., priority 2010, dated 2016).

Common to all, as to assay type: cell-based
For data set [1], the system named is melanocytes in human hair follicles. As to the kind of experiment: Immunohistochemical analysis of melanocytes in cultured hair follicles (NKI-beteb, Ki67, Trp2, cKit). From the text:
Number of melanocytes in the hair follicle can be evaluated by standard methods e.g.: immunohistochemical staining of the melanocytes with the pan-melanocyte marker NKI-beteb following by counting the NKI-beteb+ cells.
Differentiation and migration of melanocytes from the hair sheath to the hair matrix can be measured by immunohistochemical staining of c-kit+ melanocytes in the hair follicle, and by assessing their distribution within the hair follicle.
(§1) Tissue containing human hair follicles in the growth stage (anagen) of the hair cycle were obtained from elective facial surgery interventions. Hair follicles were isolated and maintained in culture according to methods well established in the art (Philpott et al. 1990, J Cell Sci. 97: 463-471). Gambogic amide (GA) was administered to pigmented cultured anagen VI hair follicle every other day over a culture period of 7 days in various concentrations comprised between 10 nano molar and 1 micro molar and compared to a control group without addition of GA.
Immunohistochemical analysis of hair follicle was performed according to standard methods. Immunohistochemical staining of the pan-melanocyte marker NKI-beteb and the proliferation marker Ki67 was used to asses total number of melanocytes in cultured follicles in presence of GA. […] This increase was dose dependent. […]

The test system of data set [2] is human hair follicles. As to the kind of experiment: Hair shaft elongation, hair cycle progression and toxicity in cultured human anagen VI hair follicles. The method, then: as §1
Hair shaft elongation was measured as a way to assess possible hair growth promoting or inhibiting effects of GA. […] It is therefore concluded from this first observation that the dose range in which GA can be used is between 10 nano molar and 1 micro molar, and that GA can be used as a hair growth promoting or restoring agent.

In data set [3] the test system is human hair follicles. As to the kind of experiment: Macroscopic analysis of hair follicle pigmentation in cultured anagen hair follicles. To be noted: 0.1 to 1 micro molar GA, 7 day culture, versus control group. As for the experimental part: as §1

Molecules are shown by their SMILES.

In the case of `CC(C)=CCC[C@]1(C)C=Cc2c(O)c3c(c(CC=C(C)C)c2O1)O[C@]12C(=C[C@@H]4C[C@H]1C(C)(C)O[C@@]2(C/C=C(/C)C(N)=O)C4=O)C3=O` [GA, 2-Butenamide, 2-methyl-4-[(1R,3aS,5S,11R,14aS)-3a,4,5,7-tetrahydro-8-hydroxy-3,3,11-trimethyl-13-(3-methyl-2-buten-1-yl)-11-(4-methyl-3-penten-1-yl)-7,15-dioxo-1,5-methano-1H,3H,11H-furo[3,4-g]pyrano[3,2-b]xanthen-1-yl]-, (2Z)-], the “total number of melanocytes (NKI-beteb and Ki67 staining)” value in data set [1] (between 0.1 and 0.5 micro molar, hair follicles that remained in the anagen stage) was “total number of melanocytes was increased”. Also, in data set [1] (hair follicles treated between 0.1 and 1 micro molar GA), the “cKit labeling (marker for migrating, activated early melanocytes)” value is reported as “most pronouncedly found”. The signs of toxicity entry in the data set on human hair follicles [2] (concentrations as high as 1 micro) was “No signs of toxicity were observed”. Further, the “hair shaft elongation compared to control” value in the data set with human hair follicles [2] (concentrations between 0.1 and 1 micro molar, 7 days culture) is recorded as “increase in hair shaft elongation”. Besides, in the data set on human hair follicles [2] (with the application of GA, 7 days culture), the hair cycle progression entry was “no hair cycle progression was observed”. Also, the “hair follicle pigmentation (macroscopic analysis)” value with human hair follicles [3] was “clear and significant improvement of hair follicle pigmentation”.
